Marks after values point to notes of the source that are not given here.
Tested on: mouse organs
Assay: In vivo activity screening in mice: organ mean total flux (p/s) of luciferase activity after injection of F2 LNP pools (Table 6, FIG. 7A-7C)
Conditions: luciferase mRNA
Procedure: Small rodent biodistribution studies were performed in mice (e.g., C57BL/6J, Balb-c, CD-1, etc.). For evaluating LNP biodistribution and tissue activity upon systemic administration, C57BL/6J mice received dose administration by single intravenous injection via tail vein with LNP formulations (individual or pooled) in PBS, at different dose (0.25-3 mg/kg) levels of firefly luciferase mRNA. At predetermined time points (4-6 hours post-injection), the animals were anesthetized via isoflurane and subjected to in-life imaging sessions for bioluminescence using an In Vivo Imaging System (IVIS). All animals were dosed with D-Luciferin at 15 mg/mL via subcutaneous (SC) injection at 0.2 mL/animal. Animals had their abdomen hair shaved using an animal trimmer. They were then placed so their shaved belly faced up toward the IVIS camera. Whole body imaging sessions were performed 10-15 minutes following D-Luciferin administration.
For in detail organ distribution and activity of LNP formulations, ex vivo imaging sessions were also performed. All animals received SC D-Luciferin and were then euthanized by isoflurane overdose, followed by cardiac perfusion with saline. Following perfusion, the organs were collected and subjected to IVIS imaging for luminescence within 10-15 minutes of D-Luciferin injection.
All IVIS images were processed with a computer software to identify the regions of interests for individual organs to detect the total flux (p/s) values as luminescence quantification. Then the total flux values were graphed to evaluate the in vivo activity in each collected organ.
Small rodent biodistribution studies were performed in mice according to the General Study Protocols in Example 3(a). LNPs incorporating lipid compounds were prepared in Formulation F2, with MC3 as lipid compound (Cayman Chemical) prepared using Formulation F2 for comparison. LNP pools (with firefly luciferase mRNA encapsulated) were injected into mice at varying doses, and organ mean total flux (p/s) results (measuring luciferase activity) were then collected according to Example 3(a).
LNPs comprising MC3 used as a control and for cross-mouse comparison. Dose is in mg/kg; LC is Lipid Compound according to Table 1.
Additional screening results for Compounds 7, 13, 14, 26, 33, 38, 39, 40, 48, 60, 61, 89, 103, and 109 in spleen, femur, and muscle are shown in FIG. 7A, FIG. 7B, and FIG. 7C, with MC3 as a used as a control for comparison.

Compound: CCCCC/C=C\CCOC(=O)CCCCC(=O)OCC(COC(=O)CCCCC(=O)OCC/C=C\CCCCC)(COC(=O)CCC(CCCC)CCOC(=O)NCCN1CCCC1)COC(=O)CC12CC3CC(CC(C3)C1)C2 (stereo not shown) [Compound 61, O6-[2-[[2-(1-adamantyl)acetyl]oxymethyl]-2-[[6-[(Z)-non-3-enoxy]-6-oxo-hexanoyl]-oxymethyl]-3-[4-[2-(2-pyrrolidin-1-ylethylcarbamoyloxy)ethyl]octanoyloxy]propyl]O1-[(Z)-non-3-enyl]hexanedioate]
- Organ Mean Total Flux Femur (Mouse 2, dose 1.0 mg/kg): 34.2 p/s (×10^6)
- Organ Mean Total Flux Heart (Mouse 2, dose 1.0 mg/kg): 1.9 p/s (×10^6)
- Organ Mean Total Flux Kidney (Mouse 2, dose 1.0 mg/kg): 4.8 p/s (×10^6)
- Organ Mean Total Flux Liver (Mouse 2, dose 1.0 mg/kg): 542.7 p/s (×10^6)
- Organ Mean Total Flux Lung (Mouse 2, dose 1.0 mg/kg): 123.9 p/s (×10^6)
- Organ Mean Total Flux Muscle (Mouse 2, dose 1.0 mg/kg): 28.1 p/s (×10^6)
- Organ Mean Total Flux Pancreas (Mouse 2, dose 1.0 mg/kg): 28.8 p/s (×10^6)
- Organ Mean Total Flux Spleen (Mouse 2, dose 1.0 mg/kg): 85.1 p/s (×10^6)
- Organ Mean Total Flux Femur (Mouse 14, dose 0.5 mg/kg): 16.6 p/s (×10^6)
- Organ Mean Total Flux Heart (Mouse 14, dose 0.5 mg/kg): 1.0 p/s (×10^6)
- Organ Mean Total Flux Kidney (Mouse 14, dose 0.5 mg/kg): 5.0 p/s (×10^6)
- Organ Mean Total Flux Liver (Mouse 14, dose 0.5 mg/kg): 157.3 p/s (×10^6)
- Organ Mean Total Flux Lung (Mouse 14, dose 0.5 mg/kg): 33.8 p/s (×10^6)
- Organ Mean Total Flux Muscle (Mouse 14, dose 0.5 mg/kg): 11.1 p/s (×10^6)
- Organ Mean Total Flux Pancreas (Mouse 14, dose 0.5 mg/kg): 51.6 p/s (×10^6)
- Organ Mean Total Flux Spleen (Mouse 14, dose 0.5 mg/kg): 109.9 p/s (×10^6)

Compound: CCCCCCC(CCC(=O)OCC(COC(=O)CCCCCOC(=O)C(CCCC)CCCCCC)(COC(=O)CCCCCOC(=O)C(CCCC)CCCCCC)COC(=O)CC12CC3CC(CC(C3)C1)C2)OC(=O)NCCN1CCCC1 (stereo not shown) [Compound 58, [6-[2-[[2-(1-adamantyl)acetyl]oxymethyl]-2-[6-(2-butyloctanoyloxy)hexanoyloxymethyl]-3-[4-(2-pyrolidin-1-ylethylcarbamoyloxy)decanoyloxy]propoxy]-6-oxo-hexyl]2-butyloctanoate]
- Organ Mean Total Flux Femur (Mouse 3, dose 1.0 mg/kg): 11.5 p/s (×10^6)
- Organ Mean Total Flux Heart (Mouse 3, dose 1.0 mg/kg): 2.8 p/s (×10^6)
- Organ Mean Total Flux Kidney (Mouse 3, dose 1.0 mg/kg): 2.6 p/s (×10^6)
- Organ Mean Total Flux Liver (Mouse 3, dose 1.0 mg/kg): 1493 p/s (×10^6)
- Organ Mean Total Flux Lung (Mouse 3, dose 1.0 mg/kg): 41.0 p/s (×10^6)
- Organ Mean Total Flux Muscle (Mouse 3, dose 1.0 mg/kg): 29.1 p/s (×10^6)
- Organ Mean Total Flux Pancreas (Mouse 3, dose 1.0 mg/kg): 9.2 p/s (×10^6)
- Organ Mean Total Flux Spleen (Mouse 3, dose 1.0 mg/kg): 10.5 p/s (×10^6)

Compound: CCCCC/C=C\CCOC(=O)CCCCC(=O)OCC(COC(=O)CCCCC(=O)OCC/C=C\CCCCC)(COC(=O)CCCCC(=O)OCC/C=C\CCCCC)COC(=O)CCC(CCCCCC)OC(=O)NCCN1CCCC1 (stereo not shown) [Compound 13, O6-[2,2-bis[[6-[(Z)-non-3-enoxy]-6-oxo-hexanoyl]oxymethyl]-3-[4-(2-pyrrolidin-1-ylethylcarbamoyloxy)decanoyloxy]propyl]O1-[(Z)-non-3-enyl]hexanedioate]
- Organ Mean Total Flux Femur (Mouse 12, dose 0.5 mg/kg): 4.8 p/s (×10^6)
- Organ Mean Total Flux Heart (Mouse 12, dose 0.5 mg/kg): 1.0 p/s (×10^6)
- Organ Mean Total Flux Kidney (Mouse 12, dose 0.5 mg/kg): 4.5 p/s (×10^6)
- Organ Mean Total Flux Liver (Mouse 12, dose 0.5 mg/kg): 620.0 p/s (×10^6)
- Organ Mean Total Flux Lung (Mouse 12, dose 0.5 mg/kg): 16.7 p/s (×10^6)
- Organ Mean Total Flux Muscle (Mouse 12, dose 0.5 mg/kg): 17.0 p/s (×10^6)
- Organ Mean Total Flux Pancreas (Mouse 12, dose 0.5 mg/kg): 1.1 p/s (×10^6)
- Organ Mean Total Flux Spleen (Mouse 12, dose 0.5 mg/kg): 21.3 p/s (×10^6)

Compound: CCCCC/C=C\CCOC(=O)CCCCCC(=O)OCC(COC(=O)CCCCCC(=O)OCC/C=C\CCCCC)(COC(=O)CCCCCC(=O)OCC/C=C\CCCCC)COC(=O)CCC(CCCC)OC(=O)NCCN1CCCC1 (stereo not shown) [Compound 26, O7-[2,2-bis[[7-[(Z)-non-3-enoxy]-7-oxo-heptanoyl]oxymethyl]-3-[4-(2-pyrrolidin-1-ylethylcarbamoyloxy)octanoyloxy]propyl]O1-[(Z)-non-3-enyl]heptanedioate]
- Organ Mean Total Flux Femur (Mouse 11, dose 0.5 mg/kg): 20.0 p/s (×10^6)
- Organ Mean Total Flux Heart (Mouse 11, dose 0.5 mg/kg): 1.2 p/s (×10^6)
- Organ Mean Total Flux Kidney (Mouse 11, dose 0.5 mg/kg): 4.4 p/s (×10^6)
- Organ Mean Total Flux Liver (Mouse 11, dose 0.5 mg/kg): 481.0 p/s (×10^6)
- Organ Mean Total Flux Lung (Mouse 11, dose 0.5 mg/kg): 26.9 p/s (×10^6)
- Organ Mean Total Flux Muscle (Mouse 11, dose 0.5 mg/kg): 6.2 p/s (×10^6)
- Organ Mean Total Flux Pancreas (Mouse 11, dose 0.5 mg/kg): 8.2 p/s (×10^6)
- Organ Mean Total Flux Spleen (Mouse 11, dose 0.5 mg/kg): 152.7 p/s (×10^6)

Compound: CCCCC/C=C\CCOC(=O)CCCCCC(=O)OCC(COC(=O)CCCCC)(COC(=O)CCCCCC(=O)OCC/C=C\CCCCC)COC(=O)CCC(CCCCCC)OC(=O)NCCN1CCCC1 (stereo not shown) [Compound 60]
- Organ Mean Total Flux Femur (Mouse 2, dose 1.0 mg/kg): 56.4 p/s (×10^6)
- Organ Mean Total Flux Heart (Mouse 2, dose 1.0 mg/kg): 2.9 p/s (×10^6)
- Organ Mean Total Flux Kidney (Mouse 2, dose 1.0 mg/kg): 5.5 p/s (×10^6)
- Organ Mean Total Flux Liver (Mouse 2, dose 1.0 mg/kg): 1118 p/s (×10^6)
- Organ Mean Total Flux Lung (Mouse 2, dose 1.0 mg/kg): 72.8 p/s (×10^6)
- Organ Mean Total Flux Muscle (Mouse 2, dose 1.0 mg/kg): 28.7 p/s (×10^6)
- Organ Mean Total Flux Pancreas (Mouse 2, dose 1.0 mg/kg): 86.2 p/s (×10^6)
- Organ Mean Total Flux Spleen (Mouse 2, dose 1.0 mg/kg): 367.7 p/s (×10^6)
- Organ Mean Total Flux Femur (Mouse 14, dose 0.5 mg/kg): 11.4 p/s (×10^6)
- Organ Mean Total Flux Heart (Mouse 14, dose 0.5 mg/kg): 2.5 p/s (×10^6)
- Organ Mean Total Flux Kidney (Mouse 14, dose 0.5 mg/kg): 4.1 p/s (×10^6)
- Organ Mean Total Flux Liver (Mouse 14, dose 0.5 mg/kg): 448.0 p/s (×10^6)
- Organ Mean Total Flux Lung (Mouse 14, dose 0.5 mg/kg): 20.5 p/s (×10^6)
- Organ Mean Total Flux Muscle (Mouse 14, dose 0.5 mg/kg): 14.9 p/s (×10^6)
- Organ Mean Total Flux Pancreas (Mouse 14, dose 0.5 mg/kg): 18.0 p/s (×10^6)
- Organ Mean Total Flux Spleen (Mouse 14, dose 0.5 mg/kg): 42.7 p/s (×10^6)

Compound: CCCCC/C=C\CCOC(=O)CCCCCCC(=O)OCC(COC(=O)CCCCCCC(=O)OCC/C=C\CCCCC)(COC(=O)CCCCCCC(=O)OCC/C=C\CCCCC)COC(=O)CCC(CCCCCC)OC(=O)NCCN(C)CC (stereo not shown) [Compound 29, O8-[2-[4-[2-[ethyl(methyl)amino]ethylcarbamoyloxy]decanoyloxymethyl]-3-[8-[(Z)-non-3-enoxy]-8-oxo-octanoyl]oxy-2-[[8-[(Z)-non-3-enoxy]-8-oxooctanoyl]oxymethyl]propyl]O1-[(Z)-non-3-enyl]octanedioate]
- Organ Mean Total Flux Femur (Mouse 6, dose 0.5 mg/kg): 4.2 p/s (×10^6)
- Organ Mean Total Flux Heart (Mouse 6, dose 0.5 mg/kg): 3.9 p/s (×10^6)
- Organ Mean Total Flux Kidney (Mouse 6, dose 0.5 mg/kg): 3.2 p/s (×10^6)
- Organ Mean Total Flux Liver (Mouse 6, dose 0.5 mg/kg): 1913 p/s (×10^6)
- Organ Mean Total Flux Lung (Mouse 6, dose 0.5 mg/kg): 11.4 p/s (×10^6)
- Organ Mean Total Flux Muscle (Mouse 6, dose 0.5 mg/kg): 10.3 p/s (×10^6)
- Organ Mean Total Flux Pancreas (Mouse 6, dose 0.5 mg/kg): 1.4 p/s (×10^6)
- Organ Mean Total Flux Spleen (Mouse 6, dose 0.5 mg/kg): 3.3 p/s (×10^6)

Compound: CCCCC/C=C\CCOC(=O)CCCCC(=O)OCC(COC(=O)CCCCC(=O)OCC/C=C\CCCCC)(COC(=O)CCC(CCCCCC)OC(=O)NCCN1CCCC1)COC(=O)CC1CCC1 (stereo not shown) [Compound 73, O6-[2-[(2-cyclobutylacetyl)oxymethyl]-2-[[6-[(Z)-non-3-enoxy]-6-oxo-hexanoyl]oxymethyl]-3-[4-(2-pyrrolidin-1-ylethylcarbamoyloxy)decanoyloxy]propyl]O1-[(Z)-non-3-enyl]hexanedioate]
- Organ Mean Total Flux Femur (Mouse 12, dose 0.5 mg/kg): 7.3 p/s (×10^6)
- Organ Mean Total Flux Heart (Mouse 12, dose 0.5 mg/kg): 0.5 p/s (×10^6)
- Organ Mean Total Flux Kidney (Mouse 12, dose 0.5 mg/kg): 1.7 p/s (×10^6)
- Organ Mean Total Flux Liver (Mouse 12, dose 0.5 mg/kg): 127.7 p/s (×10^6)
- Organ Mean Total Flux Lung (Mouse 12, dose 0.5 mg/kg): 10.6 p/s (×10^6)
- Organ Mean Total Flux Muscle (Mouse 12, dose 0.5 mg/kg): 6.8 p/s (×10^6)
- Organ Mean Total Flux Pancreas (Mouse 12, dose 0.5 mg/kg): 15.7 p/s (×10^6)
- Organ Mean Total Flux Spleen (Mouse 12, dose 0.5 mg/kg): 49.2 p/s (×10^6)

Compound: CCCCC/C=C\CCOC(=O)CCCCCCC(=O)OCC(COC(=O)CCCCCCC(=O)OCC/C=C\CCCCC)(COC(=O)CCCCCCC(=O)OCC/C=C\CCCCC)COC(=O)CCC(CCCC)OC(=O)NCCN1CCCC1 (stereo not shown) [Compound 25, O8-[2,2-bis[[8-[(Z)-non-3-enoxy]-8-oxo-octanoyl]oxymethyl]-3-[4-(2-pyrrolidin-1-ylethylcarbamoyloxy)octanoyloxy]propyl]O1-[(Z)-non-3-enyl]octanedioate]
- Organ Mean Total Flux Femur (Mouse 6, dose 0.5 mg/kg): 4.4 p/s (×10^6)
- Organ Mean Total Flux Heart (Mouse 6, dose 0.5 mg/kg): 1.4 p/s (×10^6)
- Organ Mean Total Flux Kidney (Mouse 6, dose 0.5 mg/kg): 5.9 p/s (×10^6)
- Organ Mean Total Flux Liver (Mouse 6, dose 0.5 mg/kg): 911.0 p/s (×10^6)
- Organ Mean Total Flux Lung (Mouse 6, dose 0.5 mg/kg): 12.5 p/s (×10^6)
- Organ Mean Total Flux Muscle (Mouse 6, dose 0.5 mg/kg): 5.1 p/s (×10^6)
- Organ Mean Total Flux Pancreas (Mouse 6, dose 0.5 mg/kg): 14.3 p/s (×10^6)
- Organ Mean Total Flux Spleen (Mouse 6, dose 0.5 mg/kg): 80.3 p/s (×10^6)

Compound: CCCCC/C=C\CCOC(=O)CCCCC(=O)OCC(COC(=O)CCCCC(=O)OCC/C=C\CCCCC)(COC(=O)CCC(CCCCCC)OC(=O)NCCN1CCCC1)COC(=O)C12CCCC1C2 (stereo not shown) [Compound 101, O6-[2-(bicyclo[3.1.0]hexane-1-carbonyloxymethyl)-2-[[6-[(Z)-non-3-enoxy]-6-oxo-hexanoyl]oxymethyl]-3-[4-(2-pyrrolidin-1-ylethylcarbamoyloxy)decanoyloxy]propyl]O1-[(Z)-non-3-enyl]hexanedioate]
- Organ Mean Total Flux Femur (Mouse 12, dose 0.5 mg/kg): 9.7 p/s (×10^6)
- Organ Mean Total Flux Heart (Mouse 12, dose 0.5 mg/kg): 0.8 p/s (×10^6)
- Organ Mean Total Flux Kidney (Mouse 12, dose 0.5 mg/kg): 0.9 p/s (×10^6)
- Organ Mean Total Flux Liver (Mouse 12, dose 0.5 mg/kg): 306.7 p/s (×10^6)
- Organ Mean Total Flux Lung (Mouse 12, dose 0.5 mg/kg): 26.5 p/s (×10^6)
- Organ Mean Total Flux Muscle (Mouse 12, dose 0.5 mg/kg): 5.2 p/s (×10^6)
- Organ Mean Total Flux Pancreas (Mouse 12, dose 0.5 mg/kg): 14.3 p/s (×10^6)
- Organ Mean Total Flux Spleen (Mouse 12, dose 0.5 mg/kg): 53.2 p/s (×10^6)
